Experimental data reported in the supplement of paper PMC10307832.

Key:
Assay in all cases: relative viability (nuclei count vs DMSO), 5 days (fraction); higher = more cells survive
Serdemetan + Olaparib = compound: c1ccc2c(CCNc3ccc(Nc4ccncc4)cc3)c[nH]c2c1 [Serdemetan] + O=C(c1cc(Cc2n[nH]c(=O)c3ccccc23)ccc1F)N1CCN(C(=O)C2CC2)CC1 [Olaparib] (partner 8 µM)
How it was run: (§1)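 A single step with final 0.05% Triton X-100, 1% formaldehyde and 1 ug/ml Hoechst fixed the cells and stained nuclei 5 days after treatment. Lung cancer cell lines in 1536-well plates had been treated by pin tool the day after seeding with one drug alone or a fixed anchor-drug dose plus five library-drug doses (not always all listed) in √10 steps, and nuclei were counted on 4× images. Relative viability is the ratio of nuclei in treated wells to nuclei in vehicle wells, taken as the median of duplicate plates.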

Serdemetan + Vorinostat = compound: c1ccc2c(CCNc3ccc(Nc4ccncc4)cc3)c[nH]c2c1 [Serdemetan] + O=C(CCCCCCC(=O)Nc1ccccc1)NO [Vorinostat] (partner 1 µM)
How it was run: as §1

Selisistat + Decitabine = compound: C1CC(C2=C(C1)C3=C(N2)C=CC(=C3)Cl)C(=O)N [Selisistat] + Nc1ncn([C@H]2C[C@H](O)[C@@H](CO)O2)c(=O)n1 [Decitabine] (partner 2 µM)
How it was run: as §1

Serdemetan + Linsitinib = compound: c1ccc2c(CCNc3ccc(Nc4ccncc4)cc3)c[nH]c2c1 [Serdemetan] + C[C@]1(O)C[C@@H](c2nc(-c3ccc4ccc(-c5ccccc5)nc4c3)c3c(N)nccn32)C1 [Linsitinib] (partner 1 µM)
How it was run: as §1

Cell Line: UMC-11
- relative viability (Serdemetan + Olaparib; first compound 0.04 µM): 0.345
- relative viability (Serdemetan + Olaparib; first compound 0.1265 µM): 0.332
- relative viability (Serdemetan + Olaparib; first compound 0.4 µM): 0.319
- relative viability (Serdemetan + Olaparib; first compound 1.265 µM): 0.255
- relative viability (Serdemetan + Olaparib; first compound 4 µM): 0.593
- relative viability (Serdemetan + Vorinostat; first compound 0.04 µM): 0.412
- relative viability (Serdemetan + Vorinostat; first compound 0.1265 µM): 0.445
- relative viability (Serdemetan + Vorinostat; first compound 0.4 µM): 0.37
- relative viability (Serdemetan + Vorinostat; first compound 1.265 µM): 0.268
- relative viability (Serdemetan + Vorinostat; first compound 4 µM): 0.335
- relative viability (Selisistat + Decitabine; first compound 0.4 µM): 0.604
- relative viability (Selisistat + Decitabine; first compound 1.265 µM): 0.688
- relative viability (Selisistat + Decitabine; first compound 4 µM): 0.646
- relative viability (Selisistat + Decitabine; first compound 12.65 µM): 0.676
- relative viability (Selisistat + Decitabine; first compound 40 µM): 0.637
- relative viability (Serdemetan + Linsitinib; first compound 0.04 µM): 1.03
- relative viability (Serdemetan + Linsitinib; first compound 0.1265 µM): 0.902
- relative viability (Serdemetan + Linsitinib; first compound 0.4 µM): 0.873
- relative viability (Serdemetan + Linsitinib; first compound 1.265 µM): 0.701
- relative viability (Serdemetan + Linsitinib; first compound 4 µM): 0.828
